Experimental data taken from US20230174538A1, “Tricyclic heterocycles” (Merck Patent GmbH, priority 2020, published 2023).

Assays:
[1] = test system: NCI-H226 cells; assay: Viability assay in NCI-H226 (Yap-dependent) cells, CyQUANT; format: cell-based; details: Homo sapiens
Experimental: (§1) Viability Assay in NCI-H226 (Yap-Dependent) and SW620 Yap KO (Yap Independent) Cells
(§2) The ability of YAP-TEAD inhibitors to inhibit tumor cell growth was evaluated using two different cell lines: NCI-H226, which is a YAP dependent cell line, and SW620 cells, where YAP and TAZ were knocked out using CRISPR to generate a YAP independent cell line.
(§3) For the assay, cells were treated in duplicates with the test compounds in a 10-point dose, 1:3 dilution steps, with the top concentration starting at 30 μM (final concentration in assay). After a 96 hour incubation at 37° C., 95% rH, and 5% CO2, a cell-permeant DNA-binding dye that stains only healthy cells (CyQUANT®, Promega) was added to the cells, allowing the quantification of cell viability.
(§4) Cell Media: The NCI-H226 cells were cultured in the following media: RPMI 1640, +10% FBS, +1× GlutaMAX, +10 mM HEPES, +0.5% Pen/Strep. The SW620-KO cells were cultured in the following media: DMEM/F-12, +10% FBS, +1× GlutaMAX, +10 mM HEPES, +0.5% Pen/Strep.
(§5) Reagents: The reagents used are listed below:
(§6) Cell culture: The cells were examined using an inverted microscope to check for health, cell density, etc. To dissociate adherent cells, the monolayer of cells was washed once with pre-warmed PBS. After removing the PBS, 3 ml pre-warmed Accutase was added to a F75 flask, dispersed evenly and the flask was allowed to sit in incubator for ˜4-5 minutes.
(§7) When a single cell suspension was obtained, 7 ml of prewarmed growth media was added and resuspended with the cells. The cell suspension was transferred to a sterile 15 ml conical centrifuge tube, and spun for 5 min at 300×g, RT. The supernatant was discarded and the pellet was resuspended in 10 ml of pre-warmed growth media.
(§8) The total cell count was determined, and 20 μl of the desired cell number was added to each well of a 384 well plate using a Multidrop Combi. The plates were then incubated for 24 hours at 37° C., 95% rH, and 5% CO2.
(§9) Compound treatment: 24 hours after seeding, the cells were treated with compounds.
(§10) A 1:333 dilution of compounds, diluted in DMSO, was made to get a final concentration of 0.3% DMSO per well. To transfer the compounds to the assay plate, 120 nl was shot from Labcyte low dead volume plates to the cell plates containing 20 μl media/well with the ECHO 555 liquid handling system.
(§11) After treatment, the cells were fed with 20 μl fresh pre-warmed assay media using a Multidrop combi.
(§12) The assay plates were then incubated for 96 h at 37° C., 95% rH, and 5% CO2.
(§13) 96 h after treatment 30 μl of CyQuant® reagent was added to the assay plates using a Multidrop combi in the dark. The plates were then incubated for 1 hour at 37° C., 95% rH and 5% CO2. Thereafter, the assay plates were removed from the incubator and allowed to equilibrate to RT for 30 min in the dark without lid. Finally, they were measured using an EnVision microplate reader with a FITC bottom read program.

[2] = test system: SW620 Yap KO cells; assay: Viability assay in SW620 Yap KO (Yap independent) cells, CyQUANT; format: cell-based; details: Homo sapiens, SW-620
Experimental: as §1, §2, §3, §4, §5, §6, §7, §8, §9, §10, §11, §12, §13

[3] = test system: YAP-TEAD interaction; assay: SK-HEP-1 reporter assay (8xTEAD responsive elements driving NanoLuc luciferase); format: cell-based; details: Homo sapiens, SK-HEP1, SK-HEP-1 reporter assay
How it was run: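 Luminescence after NanoGlo addition gave reporter activity, and IC50 values came from duplicate 10-point curves (top final concentration 30 μM, 0.3% DMSO). The cells were SK-HEP-1 with a stably integrated 8×TEAD-driven NanoLuc gene, exposed to compound for 24 h at 37 °C.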

[4] = test system: NCI-H226 human mesothelioma tumor cells; assay: NCI-H226 in vivo efficacy study (subcutaneous xenograft); details: H2d Rag2 female mice, NCI-H226 tumors, po qd for 29 days
Experimental: NCI-H226 In Vivo Efficacy Study
7-9-week-old H2d Rag2 female mice (own breeding, Taconic-Denmark) were inoculated subcutaneously with 5×10^6 NCI-H226 human mesothelioma tumor cells in the right flank. Tumor growth and body weight was measured twice weekly using caliper. Tumor volume was calculated using the formula TV=L×W×W/2.
When tumor volume reached approximately 75-150 mm^3, animals were randomized (Day 0) into treatment groups (n=9-10/group) and treated perorally (po) once daily (qd) for 29 days with either vehicle (20% hydroxypropyl β-cyclodextrin in 50 mM PBS pH 7.4) or Compound no. 2. Compound no. 2 was tested at dosing levels of 1, 3, 10, 30, and 100 mg/kg, respectively. Results are depicted in FIG. 1 (tumor growth over time for vehicle group and each dosage group) and FIG. 2 (final tumor volume of vehicle group and each dosage group).
Statistical analysis of tumor volumes between treatment groups was done using repeated measures analysis of covariance (RM-ANCOVA) in a linear mixed effects model followed by least-squares means pairwise comparisons.
The animal experiment was performed under regulation of the German animal welfare act and in accordance with the EU laboratory animal directive for the area of animal experiments.

Q: What does the source list for `C=CC(=O)NCc1ccc2c(c1)c1cn(C)nc1n2-c1ccc(C(F)(F)F)cc1` [Example 21, N—([2-methyl-8-[4-(trifluoromethyl)phenyl]pyrazolo [3,4-b]indol-5-yl]methyl)prop-2-enamide]?
A: IC50 [1]: 1000 to 10000 nM; IC50 [2]: 10000 to 30000 nM; melting point: 185 to 187 °C; IC50 [3]: 1 to 10 nM

Q: With `Cn1cc2c(n1)c1cc(C#N)ccc1n2-c1ccc(C(F)(F)F)cc1` [Example 19, 2-methyl-4-[4-(trifluoromethyl)phenyl]pyrazolo [4,3-b]indole-7-carbonitrile] as the molecule, how does the IC50 [1] read?
A: > 10000 nM

Q: What about the IC50 [2] of the same molecule?
A: > 30000 nM

Q: What about the melting point of the same molecule?
A: 208 to 210 °C

Q: And the IC50 [3]?
A: > 10000 nM

Q: For `Cn1cc2c3cc(CNC(=O)CCl)ccc3n(-c3ccc(C(F)(F)F)cc3)c2n1` [Example 24, 2-chloro-N—([2-methyl-8-[4-(trifluoromethyl)phenyl]pyrazolo[3,4-b]indol-5-yl]methyl)acetamide], which IC50 [1] is on record?
A: 100 to 1000 nM

Q: And the IC50 [2]?
A: 1000 to 10000 nM

Q: And the melting point?
A: 221 to 222 °C

Q: What about the IC50 [3] of the same molecule?
A: 100 to 10000 nM

Q: Which IC50 [1] does the source give for `Cc1nc2c(s1)c1cc(C(=O)O)ccc1n2-c1ccc(C(F)(F)F)cc1` [Example 25, 2-methyl-4-[4-(trifluoromethyl)phenyl]-[1,3]thiazolo[4,5-b]indole-7-carboxylic acid] here?
A: 100 to 1000 nM

Q: What about the IC50 [2] of the same molecule?
A: 1000 to 10000 nM

Q: What about the melting point of the same molecule?
A: 169 to 171 °C

Q: And the IC50 [3]?
A: 10 to 100 nM

Q: For `COC(=O)c1ccc2c(c1)c1nn(C)cc1n2-c1ccc(C(F)(F)F)cc1` [Example 16, Methyl 2-methyl-4-[4-(trifluoromethyl)phenyl]pyrazolo[4,3-b]indole-7-carboxylate], which IC50 [1] is on record?
A: 1 to 100 nM

Q: What about the IC50 [2] of the same molecule?
A: 1000 to 10000 nM

Q: What about the melting point of the same molecule?
A: 111 to 112 °C

Q: And the IC50 [3]?
A: 10 to 100 nM

Q: With `Cn1cc2c3cc(C(=O)O)ccc3n(-c3ccc(C(F)(F)F)cc3)c2n1` [Example 2, 2-methyl-8-[4-(trifluoromethyl)phenyl]-2H,8H-pyrazolo[3,4-b]indole-5-carboxylic acid] as the molecule, how does the IC50 [2] read?
A: > 30000 nM

Q: And the “dosing levels showing maximal tumor growth inhibition” value [4]?
A: > 10 mg/kg

Q: And the “tumor growth inhibition compared to vehicle treated group” value ([4]; 1, 3, 10, 30 and 100 mg/kg, all tested dosing levels, p-value <0.001)?
A: Significant tumor growth inhibition

Q: And the IC50 [3]?
A: 1 to 10 nM
